Data: US11505536B2, “Dihydroorotate dehydrogenase inhibitors” (Janssen Biotech, Inc., priority 2019, dated 2022)

What was measured:
human DHODH = human DHODH (Homo sapiens (Human), UniProt Q02127); test: DHODH Enzymatic Assay; type: biochemical; details: purified human DHODH, DCIP absorbance, end-point mode; read-out: hDHODH IC50
Outline: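 Purified human DHODH in […] HEPES pH 7.5, 150 mM NaCl, 0.5 mM EDTA, 0.1% Triton X-100; reaction started with substrate mix of 20 mM DHO, 5 mM CoQ6, 1 mM DCIP. End-point read as DCIP reduction (absorbance ~600 nm) after brequinar quench.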

[1] = system: MOLM-13 cells (human acute myeloid leukemia cells); test: MOLM-13 Cellular Assay; type: cell-based; details: Homo sapiens, MOLM-13, 72 h, 72 hours exposure, cell viability by CellTiter-Glo
Outline: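 MOLM-13 AML cells, seeded at 5,000/well in RPMI 1640 with 10% FBS, were treated with compounds right after seeding for 72 h at 37 °C, 5% CO2. Viability read by CellTiter-Glo luminescence.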

human DHODH, sequence (Q02127 whole entry): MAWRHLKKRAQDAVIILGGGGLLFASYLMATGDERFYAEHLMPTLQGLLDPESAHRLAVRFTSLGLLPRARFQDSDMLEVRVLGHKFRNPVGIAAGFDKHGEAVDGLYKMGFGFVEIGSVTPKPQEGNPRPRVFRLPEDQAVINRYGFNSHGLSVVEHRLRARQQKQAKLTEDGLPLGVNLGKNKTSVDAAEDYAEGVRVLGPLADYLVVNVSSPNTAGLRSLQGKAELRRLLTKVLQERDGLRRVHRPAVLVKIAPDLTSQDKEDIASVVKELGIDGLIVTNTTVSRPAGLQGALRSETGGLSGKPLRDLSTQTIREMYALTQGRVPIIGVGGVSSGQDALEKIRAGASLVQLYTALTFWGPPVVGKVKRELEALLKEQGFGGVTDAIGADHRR

Structure (SMILES) | IC50 (human DHODH) [nM] | IC50 [1] [nM]
CCC(COC)n1cc(C(C)C)c2cc(-n3nc(CO)n(CC)c3=O)c(F)cc2c1=O (centres unmarked) [Example 116, 6-(4-Ethyl-3-(hydroxymethyl)-5-oxo-4,5-dihydro-1H-1,2,4-triazol-1-yl)-7-fluoro-4-isopropyl-2-(1-methoxybutan-2-yl)isoquinolin-1(2H)-one] | 30.7 | 20
CCn1c(CO)nn(-c2cc3c(C(C)C)cn(-c4ncccc4C)c(=O)c3cc2F)c1=O [Example 118, 6-(4-Ethyl-3-(hydroxymethyl)-5-oxo-4,5-dihydro-1H-1,2,4-triazol-1-yl)-7-fluoro-4-isopropyl-2-(3-methylpyridin-2-yl)isoquinolin-1(2H)-one] | 14.8 | 10
CCC(CC)n1cc(C(C)C)c2cc(-n3nc(CO)n(CC)c3=O)c(F)cc2c1=O [Example 122, 6-(4-Ethyl-3-(hydroxymethyl)-5-oxo-4,5-dihydro-1H-1,2,4-triazol-1-yl)-7-fluoro-4-isopropyl-2-(pentan-3-yl)isoquinolin-1(2H)-one] | 13.4 | 10
CCn1c(CO)nn(-c2cc3c(C(C)C)cn(C45CCC(CC4)C5)c(=O)c3cc2F)c1=O [Example 128, 2-(Bicyclo[2.2.1]heptan-1-yl)-6-(4-ethyl-3-(hydroxymethyl)-5-oxo-4,5-dihydro-1H-1,2,4-triazol-1-yl)-7-fluoro-4-isopropylisoquinolin-1(2H)-one] | 19 | 7
CCn1c(CO)nn(-c2cc3c(C(C)C)cn(-c4ccnc(OC)c4C)c(=O)c3cc2F)c1=O [Example 129, 6-(4-Ethyl-3-(hydroxymethyl)-5-oxo-4,5-dihydro-1H-1,2,4-triazol-1-yl)-7-fluoro-4-isopropyl-2-(2-methoxy-3-methylpyridin-4-yl)isoquinolin-1(2H)-one] | 29.2 | 50
CCn1c(CO)nn(-c2nc3c(C(C)C)cn(-c4ccccc4OC)c(=O)c3cc2F)c1=O [Example 130, 2-(4-Ethyl-3-(hydroxymethyl)-5-oxo-4,5-dihydro-1H-1,2,4-triazol-1-yl)-3-fluoro-8-isopropyl-6-(2-methoxyphenyl)-1,6-naphthyridin-5(6H)-one] | 0.885 | 0.9
CCn1c(CO)nn(-c2cc3c(C(C)C)cn(-c4csnc4C)c(=O)c3cc2F)c1=O [Example 131, 6-(4-Ethyl-3-(hydroxymethyl)-5-oxo-4,5-dihydro-1H-1,2,4-triazol-1-yl)-7-fluoro-4-isopropyl-2-(3-methylisothiazol-4-yl)isoquinolin-1(2H)-one] | 33.7 | 50
CCn1c(CO)nn(-c2cc3c(C(C)C)cn(-c4cnsc4C)c(=O)c3cc2F)c1=O [Example 132, 6-(4-Ethyl-3-(hydroxymethyl)-5-oxo-4,5-dihydro-1H-1,2,4-triazol-1-yl)-7-fluoro-4-isopropyl-2-(5-methylisothiazol-4-yl)isoquinolin-1(2H)-one] | 3.72 | 4
CCn1c(CO)nn(-c2cc3c(C(C)C)cn(-c4cc(C)ncc4C)c(=O)c3cc2F)c1=O [Example 135, 2-(2,5-Dimethylpyridin-4-yl)-6-(4-ethyl-3-(hydroxymethyl)-5-oxo-4,5-dihydro-1H-1,2,4-triazol-1-yl)-7-fluoro-4-isopropylisoquinolin-1(2H)-one] | 6.93 | 50
CCn1c(CO)nn(-c2cc3c(C(C)C)cn(-c4cnccc4C)c(=O)c3cc2F)c1=O [Example 136, 6-(4-Ethyl-3-(hydroxymethyl)-5-oxo-4,5-dihydro-1H-1,2,4-triazol-1-yl)-7-fluoro-4-isopropyl-2-(4-methylpyridin-3-yl)isoquinolin-1(2H)-one] | 4.79 | 8
CCn1c(CO)nn(-c2cc3c(C(C)C)cn(-c4ccncc4C)c(=O)c3cc2F)c1=O [Example 137, 6-(4-Ethyl-3-(hydroxymethyl)-5-oxo-4,5-dihydro-1H-1,2,4-triazol-1-yl)-7-fluoro-4-isopropyl-2-(3-methylpyridin-4-yl)isoquinolin-1(2H)-one] | 8.08 | 8
CCn1c(CO)nn(-c2cc3c(C(C)C)cn(-c4cccnc4C)c(=O)c3cc2F)c1=O [Example 138, 6-(4-Ethyl-3-(hydroxymethyl)-5-oxo-4,5-dihydro-1H-1,2,4-triazol-1-yl)-7-fluoro-4-isopropyl-2-(2-methylpyridin-3-yl)isoquinolin-1(2H)-one] | 80.4 | > 100
CCn1c(CO)nn(-c2cc3c(C(C)C)cn(-c4cc(O)ncc4C)c(=O)c3cc2F)c1=O [Example 139, 6-(4-Ethyl-3-(hydroxymethyl)-5-oxo-4,5-dihydro-1H-1,2,4-triazol-1-yl)-7-fluoro-2-(2-hydroxy-5-methylpyridin-4-yl)-4-isopropylisoquinolin-1(2H)-one] | 35.4 | > 100
CCn1c(CO)nn(-c2nc3c(C(C)C)cn(-c4ccccc4C(F)F)c(=O)c3cc2F)c1=O [Example 140] | 1.13 | 1
CCn1c(CO)nn(-c2cc3c(C(C)C)cn(-c4ccnc(O)c4C)c(=O)c3cc2F)c1=O [Example 141, 6-(4-Ethyl-3-(hydroxymethyl)-5-oxo-4,5-dihydro-1H-1,2,4-triazol-1-yl)-7-fluoro-2-(2-hydroxy-3-methylpyridin-4-yl)-4-isopropylisoquinolin-1(2H)-one] | 10.5 | > 100
[2H]C([2H])([2H])c1ccccc1-n1cc(C(C)C)c2nc(-n3nc(CO)n(CC)c3=O)c(F)cc2c1=O [Example 142, 2-(4-Ethyl-3-(hydroxymethyl)-5-oxo-4,5-dihydro-1H-1,2,4-triazol-1-yl)-3-fluoro-8-isopropyl-6-(o-D3-tolyl)-1,6-naphthyridin-5(6H)-one] | 0.623 | 0.4
